In article PMC9085577, “Discovery of a Potent and Orally Active Dual GPBAR1/CysLT1R Modulator for the Treatment of Metabolic Fatty Liver Disease” (Frontiers in Pharmacology, 2022):

System: liver transcriptome
Experiment: AmpliSeq liver transcriptome of HFD-F mice
Assay type: in vivo
Conditions: liver, HFD-F + compound 2 vs HFD-F
Text: C57BL/6J male mice were fed a high fat diet (HFD) containing 59 KJ% fat plus 1% cholesterol, w/o sugar (ssniff ® EF R/M acc. D12330 mod. 22,7 ME/kg) and fructose (HFD-F) in drinking water (42 g/L), or normal chow diet for 61 days. Food intake was estimated as the difference of weight between the offered and the remnant amount of food at 3-days intervals. The food was provided as pressed pellets and the residual spillage was not considered. After 7 days, HFD-F mice were randomized to receive HFD-F alone or in combination with compound 2 (30 mg/kg/day) by gavage until the end of the experiment. Doses of each agent were chosen according to previously published data. Mice were housed under controlled temperature (22°C) and photoperiods (12:12-h light/dark cycle), allowed unrestricted access to standard mouse chow and tap water. The experimental protocol was approved by the Animal Care and Use Committee of the University of Perugia and by the Italian Minister of Health and Istituto Superiore di Sanità (Italy) and was in agreement with the European guidelines for use of experimental animals (permission n. 583/2017-PR). The general health of the animals was monitored daily by the Veterinarian in the animal facility. At the day of sacrifice, fed mice were deeply anesthetized with a mixture of tiletamine hypochloride and zolazepam hypochloride/xylazine at a dose of 50/5 mg/kg and sacrificed before 12 a.m.
High-quality RNA was extracted from mice livers, using the Direct-zol™ RNA MiniPrep w/Zymo-Spin™ IIC Columns (Zymo Research, Irvine, CA) according to the manufacturer’s instructions. RNA quality and quantity were assessed with the Qubit® RNA HS Assay Kit and a Qubit 3.0 fluorometer (Invitrogen, Carlsbad, CA) followed by agarose gel electrophoresis. Libraries were generated using the Ion AmpliSeq™ Transcriptome Mouse Gene Expression Core Panel and Chef-Ready Kit (Comprehensive evaluation of AmpliSeq transcriptome, a whole transcriptome RNA sequencing methodology) (Thermo Fisher Scientific, Waltham, MA). Briefly, 10 ng of RNA was reverse transcribed with SuperScript™ Vilo™ cDNA Synthesis Kit (Thermo Fisher Scientific, Waltham, MA) before library preparation on the Ion Chef™ instrument (Thermo Fisher Scientific, Waltham, MA). The resulting cDNA was amplified to prepare barcoded libraries using the Ion Code™ PCR Plate, and the Ion AmpliSeq™ Transcriptome Mouse Gene Expression Core Panel (Thermo Fisher Scientific, Waltham, MA), Chef-Ready Kit, according to the manufacturer’s instructions. Barcoded libraries were combined to a final concentration of 100 p.m., and used to prepare Template-Positive Ion Sphere™ (Thermo Fisher Scientific, Waltham, MA) Particles to load on Ion 540™ Chips, using the Ion 540™ Kit-Chef (Thermo Fisher Scientific, Waltham, MA). Sequencing was performed on an Ion S5™ Sequencer with Torrent Suite™ Software v6 (Thermo Fisher Scientific, Waltham, MA). The analyses were performed with a range of fold <−2 and >+2 and a p value <0.05, using Transcriptome Analysis Console Software (version 4.0.1), certified for AmpliSeq analysis (Thermo-Fisher). The transcriptomic data have been deposited as dataset on Mendeley data repository (reference number linking to the repository: Fiorucci, Stefano; Biagioli, Michele; Marchianò, Silvia; Di Giorgio, Cristina (2021), “Discovery of potent dual GPBAR1/CysLT1R modulator for the treatment of metabolic fatty liver disease,” Mendeley Data, V1, doi: 10.17632/6dnrk9fc72.1).

Compound: O=C(O)c1cccc(-c2ccc(OCc3ccc4ccccc4n3)cc2)c1 [Compound 2, 4'-(quinolin-2-ylmethoxy)-[1,1′-biphenyl]-3-carboxylic acid]
- Gm31649 transcript Fold Change: 2.82
- Gm36796 transcript Fold Change: -2.15
- Gnat1 transcript Fold Change: -2.26
- Gngt1 transcript Fold Change: -2.64
- Gpnmb transcript Fold Change: -3.95
- Hnf4aos transcript Fold Change: 2.36
- Hnrnpa0 transcript Fold Change: -2.58
- Hspa5 transcript Fold Change: -2.37
- Igip transcript Fold Change: -2.32
- Il1b transcript Fold Change: -2.2
- Il1rn transcript Fold Change: -2.12
- Insig2 transcript Fold Change: -3.18
- Itgam transcript Fold Change: -5.37
- Kif20a transcript Fold Change: -2.25
- LOC108167447 transcript Fold Change: 2.42
- LOC108168323 transcript Fold Change: -2.25
- Lactb2 transcript Fold Change: -2.04
- Ly6d transcript Fold Change: -4.62
- Meg3 transcript Fold Change: 2.02
- Mettl9 transcript Fold Change: -2.22
- Mki67 transcript Fold Change: -2.36
- Mogat1 transcript Fold Change: -2.13
- Mthfd2 transcript Fold Change: -2.03
- Mvd transcript Fold Change: -2.06
- Nat8 transcript Fold Change: 2.38
- Neat1 transcript Fold Change: -2.87
- Npas2 transcript Fold Change: -3.98
- Nr4a1 transcript Fold Change: -2.25
- Nrep transcript Fold Change: 2.34
- Nuak2 transcript Fold Change: 2.15
- Pcbp1 transcript Fold Change: -4.32
- Pcp4l1 transcript Fold Change: 2.55
- Pdilt transcript Fold Change: 3.33
- Pdpn transcript Fold Change: -2.04
- Per3 transcript Fold Change: 4.98
- Plau transcript Fold Change: -4.02
- Plaur transcript Fold Change: -2.77
- Pld6 transcript Fold Change: 2.03
- Plekhg3 transcript Fold Change: 2.05
- Plxnc1 transcript Fold Change: -2.05
- Pnpla3 transcript Fold Change: -2.9
- Podn transcript Fold Change: 2.29
- Ppp1r3c transcript Fold Change: -2.05
- Prox1 transcript Fold Change: 2.06
- Psat1 transcript Fold Change: -2.69
- Ptgs2 transcript Fold Change: -4.87
- Raet1e transcript Fold Change: -2.18
- Raet1d transcript Fold Change: -2.32
- Ralbp1 transcript Fold Change: 3.61
- Rhob transcript Fold Change: -3.06
- Rrs1 transcript Fold Change: -2.27
- Saa4 transcript Fold Change: 5.34
- Sart3 transcript Fold Change: 2.37
- Sbk1 transcript Fold Change: 2.54
- Sec11c transcript Fold Change: -2.18
- Senp1 transcript Fold Change: 3.54
- Serpina7 transcript Fold Change: -2.84
- Serpine1 transcript Fold Change: -3.49
- Slc16a1 transcript Fold Change: -2.37
- Slc17a8 transcript Fold Change: -2.06
- Slc39a8 transcript Fold Change: -2.02
- Slc40a1 transcript Fold Change: -2.28
- Slc46a3 transcript Fold Change: 2.23
- Spon2 transcript Fold Change: -3.19
- Sqle transcript Fold Change: -2.72
- Stfa3 transcript Fold Change: -9.86
- Taok3 transcript Fold Change: 2.06
- Tk1 transcript Fold Change: 2.3
- Tmx1 transcript Fold Change: 2.28
- Tnf transcript Fold Change: -2.39
- Tnfrsf23 transcript Fold Change: -2.38
- Tnnc1 transcript Fold Change: 2.09
- Tsku transcript Fold Change: 2.15
- Ubqln2 transcript Fold Change: -2.65
- Uhrf1 transcript Fold Change: -2.03
- Upp2 transcript Fold Change: 2.5
- Usp2 transcript Fold Change: 3.94
- Wrn transcript Fold Change: 3.79
- Zfp101 transcript Fold Change: -2.1
- Zfp445 transcript Fold Change: 2.82
